Results on seven molecules are retold here after patent US20230303584A1, “4,5,6,7-TETRAHYDROTHIENO[2,3-C]PYRIDINE SUMO INHIBITORS AND USES THEREOF” (SUVALENT THERAPEUTICS INC., priority 2020, published 2023).

Structures are written as SMILES.

Test [1] deals with SUMO activating enzyme (E1) (Homo sapiens (Human), UniProt Q9UBT2). The test can be described thus: Inhibitory effect on activating enzyme (E1), 15 min preincubation (Table 2). It counts as biochemical. The note with it: enzyme preincubated with compound for 15 minutes; read-out: E1 biological activity. The protocol:
Compounds are evaluated for their inhibitory effect on activating enzymes (E1) of ubiquitin, SUMO, Nedd8, Urm1, ISG15 or Atg7 using previously reported methods and protocols. One example is in: Allosteric inhibition of ubiquitin-like modifications by a class of inhibitor of SUMO-activating enzyme. Cell Chemical Biology, 26,1-11, 2019. PMID: 28051857. The enzyme was preincubated with the compounds for 15 minutes.

The target in another test is SAE1 (Homo sapiens (Human), UniProt Q9UBT2). The test can be described thus: SAE high throughput biochemical (HTRF) assay. The note with it: 15 min preincubation; 100 µM ATP; read-out: 15 min preincubation HTRF IC50 (uM) Ave. The protocol:
Assay buffer was prepared [50 mM HEPES, pH 7.5, 0.1% BSA and 10 mM MgCl2] as was the Stop Buffer [100 mM HEPES, pH 7.5, 0.05% Tween20, and 410 mM KF]. The 2x Reaction Buffer [80 nM SUMO-GST, 80 nM UBC9-His, 200 µM ATP and diluted in Assay Buffer] and Antibody Reaction Mix [13.34 nM anti-GST XL665, 1.66 nM anti-His EuK and Diluted in Stop Buffer] were also prepared. Compounds were dissolved at 200x in DMSO in a 384-well plate. Serial dilutions were performed in DMSO for each compound, and then each concentration was diluted another 50-fold in Assay Buffer, to 4x the final concentration. 2.5 µL of each concentration was transferred into its own well in a 384-well plate. SAE1 was then diluted to 4x in Assay Buffer, and 2.5 µL of 4x SAE1 was mixed into each compound-containing well. After incubating for 15 minutes at room temperature, 5 µL of 2x Reaction Buffer was mixed into every well. Then after another 45 minutes at room temperature, 10 µL of Antibody Reaction Mix was added and mixed into every well. This plate was then read on an HTRF-compatible plate reader after 2 hours at room temperature, and again after sitting at room temperature overnight. [Final Component Concentrations: SAE1: 12.5 nM; SUMO-GST: 40 nM; UBC9-His: 40 nM; Anti-GST-XL665: 6.67 nM; Anti-His-EuK: 0.83 nM; and ATP: 100 µM ] Alternatively, the compounds are tested at a single concentration of 25 micromolar and the percent of control is measured.
(In general: In TR-FRET formats the signal depends on donor and acceptor labels being close together.)

In test [2] the test system is SUMO 2/3 conjugates (sumoylation levels) in HCT-116 cells. The test can be described thus: HCT-116 4 hour cell assay, immunoblot of SUMO 2/3 conjugates. The conditions noted are these: 4 h treatment, Western blot, read-out: Cell HCT-116 Western SUMO 2/3 4 h IC50 (uM) Ave. The format is cell-based. The protocol: This protocol describes the procedures used to assess the effects of compounds of interest on sumoylation levels. Immunoblot of SUMO ⅔ conjugates are performed and IC50 curves are generated upon quantification of sumoylations bands. HCT-1 16 cells are seeded in a 12 well plate (500,000 cells/well). The following day the cells are treated with compounds of interest (resuspended in DMSO) for 4 hours (11 concentrations with a three-fold dilution; starting concentration 25 µM) Following 4 hours of incubation the cells are washed with ice cold PBS 1X and protein extraction is performed with RIPA buffer supplemented with phosphatases and proteases inhibitors, 25 mM of NEM and 50 units/mL of Benzonase . Samples undergo centrifugation at 13,000 RPM, 4° C., for 10 minutes and the supernatant is collected. Protein quantification is performed using BCA. Non-Reducing Laemmli Buffer is added to the samples. Samples are heated at 75° C. for 10 minutes, and are centrifuged for 3 minutes at 9000 RPM Nupage 4-12% Bis Tris gels and 1x MOPS buffer (Fisher Scientific) + 1x NuPAGE Antioxidant (Invitrogen) are used to perform the SDS-PAGE gel electrophoresis (20 to 40 µg of proteins are loaded in the gels). Proteins are then transferred to PVDF membranes and the level of total proteins are measured by staining with Revert Total Protein Stain and the fluorescent bands are acquired using the LI-COR FC (700 nm for 1 min) Membranes are blocked for 5 minutes with Bio-Rad Blocking Buffer and are subsequently incubated over night at 4° C. with Anti-Sumo 2-3 mAb (MBL #M114-3, 1:1000 in Bio-Rad Blocking Buffer, 0.2% Tween 20) Membranes are washed with 1X TBS-T (3 times for 5 minutes) and sumoylation is detected using Li-cor IRDye 800CW Goat anti-Mouse IgG secondary antibody (1:10,000 dilution) upon 1 hour of incubation in blocking buffer with 0.2% Tween 20 and 0.01% SDS. After the incubation, the membranes are washed with 1X TBS-T (3 times for 5 minutes). To visualize the fluorescent bands the membranes are scanned with LI-COR FC (700 nm for 1 min and […] for 2 mins) Sumoylation levels are quantified upon normalization with total protein levels, using the LI-COR Image Studio Lite 5.2 Software.
A general note: In western blotting, separated proteins are transferred to a membrane and probed.

Chain of SAE1 (Q9UBE0 whole entry partner): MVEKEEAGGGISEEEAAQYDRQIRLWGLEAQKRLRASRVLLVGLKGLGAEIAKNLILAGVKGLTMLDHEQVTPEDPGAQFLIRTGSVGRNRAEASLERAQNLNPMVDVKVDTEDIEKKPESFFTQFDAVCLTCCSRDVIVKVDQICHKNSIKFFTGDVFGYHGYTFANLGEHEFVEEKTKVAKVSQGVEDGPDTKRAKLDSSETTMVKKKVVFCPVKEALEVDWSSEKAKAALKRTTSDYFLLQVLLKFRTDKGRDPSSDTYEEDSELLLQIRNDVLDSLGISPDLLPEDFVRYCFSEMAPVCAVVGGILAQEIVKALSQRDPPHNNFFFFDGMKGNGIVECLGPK
Chain of SAE1 (Q9UBT2 whole entry): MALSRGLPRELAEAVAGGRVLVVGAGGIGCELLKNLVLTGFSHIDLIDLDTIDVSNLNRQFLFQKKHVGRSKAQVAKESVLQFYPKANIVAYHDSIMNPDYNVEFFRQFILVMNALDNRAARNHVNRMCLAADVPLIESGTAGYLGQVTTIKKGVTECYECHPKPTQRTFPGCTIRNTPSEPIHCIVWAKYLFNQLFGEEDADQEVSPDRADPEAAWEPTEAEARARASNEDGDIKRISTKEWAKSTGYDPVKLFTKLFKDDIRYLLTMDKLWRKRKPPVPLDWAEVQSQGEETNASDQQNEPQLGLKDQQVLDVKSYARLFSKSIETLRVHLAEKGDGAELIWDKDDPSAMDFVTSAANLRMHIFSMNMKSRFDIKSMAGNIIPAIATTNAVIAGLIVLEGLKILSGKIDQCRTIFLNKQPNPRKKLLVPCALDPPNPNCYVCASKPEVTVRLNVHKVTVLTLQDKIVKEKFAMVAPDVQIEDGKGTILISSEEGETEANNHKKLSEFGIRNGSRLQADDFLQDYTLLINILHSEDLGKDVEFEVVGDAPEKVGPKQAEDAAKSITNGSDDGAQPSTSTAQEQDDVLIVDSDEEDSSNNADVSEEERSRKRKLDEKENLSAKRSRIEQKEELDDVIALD
Chain of SUMO activating enzyme (E1) (Q9UBT2 whole entry): as above
Chain of SUMO activating enzyme (E1) (Q9UBE0 whole entry partner): as the sequence (Q9UBE0 whole entry partner) above

Consider `C=CC(=O)N1Cc2sc(Cl)cc2[C@H](c2ccccc2-c2cn(C(C)C)nc2C(F)(F)F)C1` [Compound 255], for which, in test [1], the IC50 was below 10000 nM.
Regarding `C=CC(=O)N1Cc2sc(Cl)cc2[C@H](c2ccccc2-c2cn(C(C)(C)C(N)=O)nc2C(F)(F)F)C1` [Compound 312], the IC50 on SAE1 is 0.23 µM; in test [2] it was 0.28 µM; in test [1], below 10000 nM.
`C=CC(=O)N1Cc2sc(C(=C)C)cc2[C@H](c2ccccc2-c2cn(CC)nc2C(F)(F)F)C1` [Compound 318]: the values for the IC50 (at SAE1; in test [2]) were 0.29 µM and 0.33 µM, respectively.
On the same counts, the results for `C=CC(=O)N1Cc2sc(-c3ccco3)cc2[C@H](c2ccccc2-c2cn(CC)nc2C(F)(F)F)C1` [Compound 324] are 0.14 µM and 0.34 µM.
Take `C=CC(=O)N1Cc2sc(Cl)cc2[C@H](c2ccccc2-c2cnn(CC)c2CC)C1` [Compound 360]: the figures for the IC50 (at SAE1; in test [2]) were 4.33 µM and 13.6 µM, respectively.
For the molecule `CCn1cc(-c2ccccc2[C@@H]2CN(C(=O)/C=C/CF)Cc3sc(Cl)cc32)c(C(F)(F)F)n1` [Compound 323], the results for the IC50 (on SAE1; in test [2]) were 0.13 µM and 0.39 µM, respectively.
`C=CC(=O)N1Cc2sc(Cl)cc2C(c2ccccc2-c2cn(-c3ccncc3Cl)nc2C(F)(F)F)C1` (stereo not shown) [Compound 340]: at SAE1, the IC50 came to 0.93 µM.
